# Data reported in patent US10653691B2, “Method of promoting remyelination” (Case Western Reserve University, priority 2013, dated 2020).
# Entries after “also recorded” stand apart in the source; their conditions may differ.
# Experiments:
# [1] = system: corpus callosum of mouse pups; assay: Developmental myelination in mouse pups; assay type: in vivo; settings: for number of CC1+ oligodendrocytes in the lateral corpus callosum / portion/length of corpus callosum covered by MBP+ fibres: pups treated daily for 4 days from postnatal day 2, clobetasol 2 mg/kg, miconazole 10 mg/kg i.p., vs vehicle
# Excerpt: On postnatal day 6 the pups were anaesthetized using ketamine and xylazine and euthanized by transcardial perfusion with 4% PFA. Tissue was fixed overnight in 4% PFA, equilibrated in 30% sucrose, and embedded in OCT. Sections (20 μm) were cut and processed for CC1 and MBP immunohistochemistry. ImageJ was then used to count and measure area of the corpus callosum as well as measure the extent of the corpus callosum length covered by MBP1 processes. Eight coronal sections containing corpus callosum rostral to the hippocampus from at least three animals per group were used for these analyses. To quantitate extent of MBP in the corpus callosum, a line was drawn through the centre of the corpus callosum from the lateral tip to the dorsal most extent of MBP expression in the corpus callosum. The length of this line was measured and then the dorsal-most point of the line was extended to the dorsal tip of the corpus callosum and measured to yield the length of the lateral callosum. The two numbers were divided to get the MBP/corpus callosum proportion. A two-tailed t-test was used to compare drug—with vehicle-treated groups.
# [2] = system: OPCs; assay: HCA of astrocyte induction (GFAP); assay type: cell-based, mouse; settings: 72 h, in vitro
# Protocol: For the astrocyte experiments in FIG. 3C, the experimental setup was identical to the PLP1-based primary validation screen except plates were stained for GFAP (DAKO, Z0334; 1:5,000). BMP4 (R&D Systems; 50 ng ml^−1) and LIF (Millipore; 10^3 U ml^−1) were used as the positive control for astrocyte induction. Assay plates were imaged on the Operetta High Content Imaging and Analysis system and a set of 14×20 fields captured. Columbus Data Management and Analysis System software (PerkinElmer) was used to quantify the percentage of GFAP1 astrocytes in each well using a method similar to that developed for oligodendrocytes.
# [3] = system: 414 different kinase isoforms; assay: Kinase profiling (LanthaScreen, Z'-LYTE, Adapta); assay type: biochemical; settings: 414 kinase isoforms
# Protocol: LanthaScreen, Z9-LYTE, and Adapta kinase assays were performed by Select Screen (Life Technologies). LanthaScreen Eu kinase assays were performed in Greiner low-volume 384-well plates. Assay buffer consisted of 50 mM HEPES pH 7.5, 0.01% BRIJ-35, 10 mM MgCl2, 1 mM EGTA. Each well consisted of this mixture: 4.0 μl of 4 μM test drug in assay buffer, 8 μl of 2× kinase/Eu antibody mixture, and 4 μl of 4×Alexa Fluor 647 tracer. Plates were incubated for 60 min at room temperature (˜22° C.), then Alexa Fluor 647 emission (665 nm) and Europium emission (615 nm) read on a fluorescent plate reader. Data were analysed by generating the emission ratio (665 nm/615 nm) for each test point and normalizing 0% to control wells with no known inhibitor and 100% to control wells with highest concentration of known inhibitor.
# Z′-LYTE assays were performed in Corning, low volume 384-well plates. Assay buffer consisted of 50 mM HEPES pH 7.5, 0.01% BRIJ-35, 10 mM MgCl2, 1 mM EGTA. […] Coumarin emission (445 nm) and fluorescein emission (520 nm) were read on a fluorescent plate reader. Data were analysed by normalizing out background fluorescence then generating the emission ratio (445 nm/520 nm) for each test point. […]
# Adapta assays were performed in Corning, low volume 384-well plates. […] Alexa Fluor 647 emission (665 nm) and europium emission (615 nm) were read on a fluorescent plate reader. […]
# [4] = system: ERK1/2; assay: Western blot of ERK1/2 phosphorylation in OPCs; assay type: cell-based, mouse; settings: OPCs treated for 1 h
# Protocol: EpiSC-derived OPCs were seeded into poly-Lornithine/laminin coated six-well plates and allowed to attach for 2 h in DMEM/F12 without additional factors. Cells were treated with indicated inhibitors or DMSO for 1 h-SCH772984 (ChemieTek, […]), SB590885 (Tocris, 10 nM), LY294002 (Tocris, 10 μM), and PD0325901 (Stemgent, 1 μM). Cells were then stimulated with drug or FGF2 (R&DSystems; 20 ng ml^−1) for 1 h and then lysed in 200 μL RIPA buffer (0.15 M NaCl, 0.05M Tris, pH=8.0, 1 mM EDTA, 1% Triton X-100, 0.1% SDS, 10% glycerol, HALT protease and phosphatase inhibitor (Thermo Fisher) added just before use) and incubated on ice for 20 min. Lysates were centrifuged at 4° C. and supernatant collected. Protein concentrations were determined by Pierce BCA protein assay kit (Thermo Fisher). Equal amounts of protein were resolved in a reduced manner on NuPAGE 4-12% Bis-Tris gels (Life Technologies) and transferred onto PVDF membranes (Life Technologies). Blots were blocked in either 5% BSA (phosphoprotein) or 5% milk (non phosphoprotein). Primary antibodies were all from the same vendor (Cell Signaling) and included phospho-Erk1/2 (4370S, clone D13.14.4E; 1:2,000), ERK1/2 (9107S, clone 3A7; 1:2,000), phospho-glucocorticoid receptor (4161S; 1:1,000), and glucocorticoid receptor (12041, clone D6H2L; 1:1,000) followed by incubation with HRP-conjugated secondary antibodies and chemiluminescent enhancement by West Pico substrate (Thermo Fisher).
# [5] = system: PLP139-151- or MOG35-55-sensitized lymph node cells; assay: Ex vivo lymphocyte recall assays; assay type: cell-based, mouse
# [6] = 2 mg/kg daily i.p., postnatal day 2-6
smiles,measurement,setting,value
C[C@H]1C[C@H]2[C@@H]3CCC4=CC(=O)C=C[C@]4(C)[C@@]3(F)[C@@H](O)C[C@]2(C)[C@@]1(O)C(=O)CCl [clobetasol],mortality of treated pups,[1]; [6],some animals of the cohort died before end of treatment
same,sickness and body weight of treated pups,[1]; [6],"exhibited sickness on the basis of this treatment, with low body weight"
same,number of CC1+ oligodendrocytes in the lateral corpus callosum,[1],significant increase in the number of CC1^+ oligodendrocytes; also recorded: marked increase in the number of CC1-positive oligodendrocytes
same,portion/length of corpus callosum covered by MBP+ fibres,[1],significantly larger portion of the corpus callosum was populated by MBP^+ fibre tracts; also recorded: significant increase in the length of the corpus callosum covered with aligned MBP^+ fibres
same,astrocyte formation from OPCs,[2],neither drug showed a significant impact on astrocyte formation
same,inhibition of kinase activity,[3],Neither clobetasol nor miconazole inhibited any of the kinases tested
same,induction of ERK1/2 phosphorylation in OPCs,[4],did not induce ERK1/2 phosphorylation
same,proliferation and secretion of cytokines by sensitized lymph node cells,[5]; 10^−9-10^−5 M,altered naïve T-cell differentiation and both the proliferation and secretion of cytokines
Clc1ccc(COC(Cn2ccnc2)c2ccc(Cl)cc2Cl)c(Cl)c1 (centres unmarked) [miconazole],number of CC1+ oligodendrocytes in the lateral corpus callosum,[1],significant increase in the number of CC1^+ oligodendrocytes; also recorded: marked increase in the number of CC1-positive oligodendrocytes
same,portion/length of corpus callosum covered by MBP+ fibres,[1],significantly larger portion of the corpus callosum was populated by MBP^+ fibre tracts; also recorded: significant increase in the length of the corpus callosum covered with aligned MBP^+ fibres
same,astrocyte formation from OPCs,[2],neither drug showed a significant impact on astrocyte formation
same,inhibition of kinase activity,[3],Neither clobetasol nor miconazole inhibited any of the kinases tested
same,induction of ERK1/2 phosphorylation in OPCs,[4],strong and sustained phosphorylation
same,modulation of immune cell function,[5]; summary of immune cell survival and function assays,did not modulate immune cell function
